Measurements reported in patent publication US11634443B2, “Treprostinil prodrugs” (United Therapeutics Corporation, priority 2019, dated 2023).

Legend:
[1] = Stability and formation of treprostinil in human cryopreserved hepatocytes
[2] = Stability and formation of treprostinil in rat cryopreserved hepatocytes
[3] = Stability and formation of treprostinil in dog cryopreserved hepatocytes
[4] = target: T1, prostaglandin I2 (PGI2) receptor (IP) (Homo sapiens, UniProt P43119); assay: IP receptor cAMP assay (agonist mode); type: cell-based; settings: Table 24; relative to treprostinil EC50 values; * partial agonists or ambiguous dose-response curves; image character = too high to realistically calculate
T1 construct: expressed in transfected cells; host or cells: CHO-K1
T1 sequence (P43119 whole entry): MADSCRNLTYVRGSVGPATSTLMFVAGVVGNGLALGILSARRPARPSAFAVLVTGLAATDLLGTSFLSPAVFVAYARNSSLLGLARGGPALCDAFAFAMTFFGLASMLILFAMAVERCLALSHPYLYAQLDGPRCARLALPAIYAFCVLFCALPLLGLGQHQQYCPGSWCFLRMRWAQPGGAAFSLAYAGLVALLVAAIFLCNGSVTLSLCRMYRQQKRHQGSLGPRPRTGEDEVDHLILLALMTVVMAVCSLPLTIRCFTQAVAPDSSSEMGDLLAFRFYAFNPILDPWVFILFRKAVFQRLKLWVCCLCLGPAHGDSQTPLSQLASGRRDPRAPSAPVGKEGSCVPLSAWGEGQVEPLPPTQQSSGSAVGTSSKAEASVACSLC

[5] = target: T2, prostaglandin E2 (PGE2) receptor 2 (EP2) (Homo sapiens, UniProt P43116); assay: EP2 receptor cAMP assay (agonist mode); type: cell-based; settings: Table 24; relative to treprostinil EC50 values; * partial agonists or ambiguous dose-response curves; image character = too high to realistically calculate
T2 construct: expressed in transfected cells; host or cells: HEK293T
T2 sequence (P43116 whole entry): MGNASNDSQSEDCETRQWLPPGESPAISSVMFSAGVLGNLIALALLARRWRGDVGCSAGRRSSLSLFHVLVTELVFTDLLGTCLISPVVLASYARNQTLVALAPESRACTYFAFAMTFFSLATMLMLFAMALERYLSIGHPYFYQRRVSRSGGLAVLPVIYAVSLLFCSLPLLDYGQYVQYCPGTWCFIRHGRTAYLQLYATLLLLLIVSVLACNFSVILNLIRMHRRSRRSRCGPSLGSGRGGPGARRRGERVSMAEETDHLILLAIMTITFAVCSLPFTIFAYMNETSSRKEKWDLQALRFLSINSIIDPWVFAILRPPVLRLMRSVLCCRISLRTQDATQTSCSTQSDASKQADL

[6] = target: T3, prostaglandin D2 (PGD2) receptor 1 (DP1) (Homo sapiens, UniProt Q13258); assay: DP1 receptor cAMP assay (agonist mode); type: cell-based; settings: Table 24; relative to treprostinil EC50 values; * partial agonists or ambiguous dose-response curves; image character = too high to realistically calculate
T3 construct: expressed in transfected cells; host or cells: HEK293T
T3 sequence (Q13258 1-359): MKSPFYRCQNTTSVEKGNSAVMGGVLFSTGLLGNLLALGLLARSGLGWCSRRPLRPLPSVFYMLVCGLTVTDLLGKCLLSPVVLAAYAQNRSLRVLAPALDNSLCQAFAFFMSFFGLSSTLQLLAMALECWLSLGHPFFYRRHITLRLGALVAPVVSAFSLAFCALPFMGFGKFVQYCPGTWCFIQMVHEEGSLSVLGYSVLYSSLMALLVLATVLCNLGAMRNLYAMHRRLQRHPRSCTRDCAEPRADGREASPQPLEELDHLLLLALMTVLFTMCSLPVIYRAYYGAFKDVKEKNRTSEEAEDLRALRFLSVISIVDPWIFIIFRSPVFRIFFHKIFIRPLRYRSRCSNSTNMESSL

PGE2 receptor 1 (EP1) = target: T4, PGE2 receptor 1 (EP1) (Homo sapiens, UniProt P34995); assay: EP1 receptor calcium assay (agonist mode); type: cell-based; settings: Table 24; relative to treprostinil EC50 values; * partial agonists or ambiguous dose-response curves; image character = too high to realistically calculate
T4 construct: expressed in transfected cells; host or cells: HEK293T
T4 sequence (P34995 1-402): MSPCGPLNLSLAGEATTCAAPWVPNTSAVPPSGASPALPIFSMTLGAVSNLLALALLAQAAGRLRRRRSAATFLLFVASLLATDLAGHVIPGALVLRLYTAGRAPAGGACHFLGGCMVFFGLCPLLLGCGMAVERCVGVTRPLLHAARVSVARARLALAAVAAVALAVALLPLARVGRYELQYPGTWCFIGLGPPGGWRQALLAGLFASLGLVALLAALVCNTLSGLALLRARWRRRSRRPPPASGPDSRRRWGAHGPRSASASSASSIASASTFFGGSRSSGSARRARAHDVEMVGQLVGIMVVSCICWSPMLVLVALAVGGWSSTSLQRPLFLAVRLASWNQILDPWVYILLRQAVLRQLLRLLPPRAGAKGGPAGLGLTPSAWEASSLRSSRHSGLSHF
Experimental: Assay Buffer: • EP1 Calcium and DP1 cAMP Assays: HBSS plus 20 mM HEPES • EP2 and IP1 cAMP Assays: 1 mM IBMX in HBSS plus 20 mM HEPES
Cells were thawed from frozen cells and resuspended in assay buffer at desired concentrations. cAMP or Calcium assays were performed according to the manufacturer's protocol using Multiscreen™ TR-FRET cAMP 1.0 No Wash Assay Kit or Multiscreen™ Calcium 1.0 No Wash Kit.
Calcium Assay: Cells were seeded in a 384-well plate at an appropriate density. The calcium assay was conducted according to the manufacturer's protocols (Multiscreen Calcium 1.0 No Wash Assay Kit). The calcium dye loading buffer was added to the cells and incubated for 1 hour at 37° C. For agonist mode, cells were injected with Iloprost control agonist or test compound by FLIPR and calcium mobilization was monitored for 180 seconds with compound injected into the wells at the 19th second. Fluorescent emissions were read at 525 nm with excitation at 490 nm in a FLIPR 384 instrument (Molecular Devices).
Calcium Assay: Calcium assay results are expressed as “RFU” as defined in figure below. Data are represented in Mean±SEM. Dose-response curves were fitted using “Sigmoidal dose-response (variable slope)” function in GraphPad Prism 6. EC50 values were calculated based on the fitted curves.
Prostaglandin receptor activity assessments with treprostinil and treprostinil analogues have been conducted, and a historical, positive control agonist for these receptors, iloprost (for IP, EP2 and EP1) or PGD2 (for DP1), was also included. These studies used cell lines overexpressing either human IP, EP2 or DP1, or EP1 receptors, and following incubation with varying concentrations of compounds, cAMP levels were measured using Fluorescence Resonance Energy Transfer (FRET). The 665/620 (acceptor/donor emission signals) ratio is inversely proportional to the concentration of cAMP.

| Treprostinil Concentration, 0 min [1] | Treprostinil Concentration, 15 min [1] | Treprostinil Concentration, 30 min [1] | Treprostinil Concentration, 60 min [1] | Treprostinil Concentration, 120 min [1] | Treprostinil Concentration, 0 min [2] | Treprostinil Concentration, 15 min [2] | Treprostinil Concentration, 30 min [2] | Treprostinil Concentration, 60 min [2] | Treprostinil Concentration, 120 min [2] | Treprostinil Concentration, 0 min [3] | Treprostinil Concentration, 15 min [3] | Treprostinil Concentration, 30 min [3] | Treprostinil Concentration, 60 min [3] | Treprostinil Concentration, 120 min [3] | Activity, IP Relative to Tre [4] | Activity, EP2 Relative to Tre [5] | Activity, DP1 Relative to Tre [6] | Activity, EP1 Relative to Tre (PGE2 receptor 1 (EP1)) | SMILES |
| --- | --- | --- | --- | --- | --- | --- | --- | --- | --- | --- | --- | --- | --- | --- | --- | --- | --- | --- | --- |
| 0.113 µM | 0.725 µM | 0.654 µM | 0.589 µM | 0.527 µM | 0.0159 µM | 0.506 µM | 0.48 µM | 0.424 µM | 0.391 µM | 0.124 µM | 0.781 µM | 0.698 µM | 0.599 µM | 0.53 µM | 54x | 50x | 94x | 122x* | CCCCC[C@@H](CC[C@@H]1[C@H]2Cc3cccc(OCC(=O)O)c3C[C@H]2C[C@H]1O)OC(=O)CC [Prodrug LV, treprostinil side chain propionic ester] |
|  |  |  |  |  |  |  |  |  |  |  |  |  |  |  | 35x | 11x | 18x | 30x | CCCCC[C@H](O)CC[C@@H]1[C@H]2Cc3cccc(OCC(=O)OCC)c3C[C@H]2C[C@H]1O [Treprostinil ethyl ester] |
